Laboratory results taken from patent publication US4935509A (priority 1989, dated 1990).

What was measured:
HT-29 = test: MTT cell count (ID50), human colon cancer cell line HT-29; format: cell-based; settings: HT-29, 144 h, read-out: ID50 HT-29
Description: (§1) In the various assays set forth below the colorimetric determination of the number of cells was carried out by the following procedure using MTT.
(§2) 3-(4,5-dimethylthiazol-2-yl)-2,5-dipenyl tetrazolium bromide (MTT) was prepared as a 5 mg/ml stock solution in phosphate buffered saline, filtered through a 0.22 μm filter and stored for up to two weeks at 4° C. while protected from light. For use in the assay it was diluted to 1 mg/ml in a pH 7.2 solution of phenol-red-free RPMI 1640 tissue culture medium supplemented with 1 mM sodium pyruvate and 50 μg/ml gentamycin. The assay was done in flat bottomed 96-well microtiter plates. Culture medium was removed from the wells by inverting and blotting the plate, fifty μl of MTT solution was added to the cells in each well, and each plate was incubated at 37° C. in an atmosphere of 5% CO2 in air. After incubation, each plate was centrifuged for 5 minutes at 8000×g and excess MTT removed by inverting and blotting. Fifty μl of 95% ethanol was added to each well and the plate was shaken (speed 6.5 for 15 minutes) to solubilize the formazan in each well. The optical density of each well was measured using an automatic plate reader with a test wavelength of 570 nm and a reference wavelength of 630 nm.
(§3) The in vitro effects of the novel compounds as compared to vinblastine and vincristine on three human colon cancer cell lines and one non-transformedhuman cell line were determined by the following procedure.
(§4) The non-transformed human fibroblast cell line, WI-38 and two of the human colon cancer cell lines, COLO-320-DM and HT-29, were obtained from the American Type Culture Collection, Rockville, MD and the third human colon cancer cell line, OM-1, was supplied by E. I. du Pont de Nemours and Co., Inc., Glenholden, PA. Both OM-1 and COLO-320-DM cells were maintained by serial passage in RPMI 1640 tissue culture medium supplemented to 10% (v/v) with heat-inactivated FBS. HT-29 cells were similarly maintained in McCoys 5A tissue culture medium supplemented with 10% heat-inactivated FBS. COLO-320-DM cells were detached by gentle scraping while HT-29 and OM-1 cells were detached using 0.25% trypsin and 0.05% trypsin, 0.5 mM EDTA solutions respectively. All cultures were incubated at 37° C. in a humidified environment of 5% CO2 in air. Experiments were conducted in 96-well flat-bottomed plates. The initial cell seeds per well for each cell line were 4,000 for WI- 38; 2,000 for COLO-320-DM; 750 for HT-29; and 3,000 for OM-1, each in the appropriate tissue culture medium. Cells were plated 24 hours before test compound was added to allow cells to recover from the effects of physical scraping and trypsinization. Varying log10 dilutions of drug were added to triplicate sets of wells and cultures were incubated for 6 days at 37° in a humidified atmosphere of 5% CO2 in air. The number of cells per well at the end of the experiment was determined colorimetrically by the reduction of MTT as described above and the results for each compounds shown in Table II. For purposes of comparison, the concentration of each test compound required to reduce the final cell number to one-half of the number in drug-free control cultures (ID50) is shown in Table II.

P388 leukemia [1] = test: Increase in mean survival time of mice bearing P388 leukemia; format: in vivo; settings: 0.12 mg/kg (optimal dose), i.p.
Description: The efficacy of the remaining compounds is clearly documented by the fact that each increased the mean survival time of tumor-bearing mice in a dose-dependentmanner. […] The percent increase in mean survival time (MST) which appears in Table IV was calculated by the following formula: [formula]

[2] = test system: P388 multiple-drug resistant cells; test: cells; format: cell-based, murine
Description: as §1, §2
(§5) The differential in vitro activity of the above compounds as compared to vincristine and vinblastine with regard to P388 wild-type and P388 multiple-drug resistant leukemia was carried out by the following procedure.
(§6) Tissue culture-adapted lines of the P388 wild-type and P388 multiple-drug resistant cells (principally resistant to adriamycin) were obtained from the American Type Culture Collection, Rockville, MD. Experiments were conducted in 96-well microtiter plates with 300 cells from either line seeded in a volume of 200 μl of tissue culture medium (RPMI 1640 supplemented to 10% (v/v) with heat-inactivated fetal bovine serum (FBS) and to […] with 1-glutamine). Cells and varying log^10 dilutions of test compound were added to triplicate sets of wells on the same day and cultures were incubated for 5 days at 37° C. in a humidified atmosphere of 5% CO2 in air. The number of cells per well at the end of the experiment was determined colorimetrically by the reduction of MTT as described above.

[3] = In vivo effect against P388 leukemia in mice (TD50, ED50, T.I.); settings: mouse, in vivo, ip
From the text: (§7) The in vivo effect of the novel compounds of this invention against P388 leukemia as compared to vinblastine and vincristine, were compared by the following procedure.
(§8) P388 murine leukemia cells were obtained from Southern Research Institute, Birmingham, Ala., and were maintained by serial i.p. passage in C57BL/6 mice. Female (C57BL/6×DBA/2) F1 (BDF) mice of 6-8 weeks of age from Jackson Laboratories, Bar Harbor, Maine, received 1×10^6 P388 cells by i.p. inoculation on day 0. Compounds were dissolved in saline and administered i.p. to 10 tumor-bearing mice per dose level on days 0-4 and 7-9 using 5 to 10 log2 dilutions from a concentration known to be toxic. […] The therapeutic index (T.I.) for each compound was calculated by the formula: [formula]

P388 leukemia [4] = test: as above; settings: calculated from TD50 and ED50
From the text: as §7, §8

P388 wild-type cells = test: MTT cell count (ID50), P388 wild-type leukemia cells in vitro; format: cell-based, murine; settings: Mus musculus, P388, 120 h, read-out: ID50 P388/Wild
Description: as §1, §2, §5, §6

WI-38 fibroblast = test: MTT cell count (ID50), non-transformed human fibroblast cell line WI-38; format: cell-based; design: unit not given here; settings: 6 days incubation
Description: as §1, §2, §3, §4

COLO-320-DM = test: MTT cell count (ID50), human colon cancer cell line COLO-320-DM; format: cell-based; settings: 144 h, read-out: ID50 COLO-320
Description: as §1, §2, §3, §4

OM-1 = test: MTT cell count (ID50), human colon cancer cell line OM-1; format: cell-based; settings: 144 h, read-out: ID50 OM-1
Description: as §1, §2, §3, §4

Compound: CC[C@]12C=CCN3CC[C@@]4(c5cc([C@@]6(C(=O)OC)C[C@H]7CN(CCc8c6[nH]c6ccccc86)C[C@@H]6CCCC[C@H]76)c(OC)cc5N(C)[C@H]4[C@@](O)(C(=O)OC)[C@@H]1OC(C)=O)[C@@H]32 [E, (4aR,8aS,9R,11S)-15-[1,2,4,4a,5,6,7,8,8a,9,10,11,12,17-tetradecahydro-11-(methoxycarbonyl)-indolo(2',3':6,7,)azonino(1,2,3-bc)isoquinolin-11-yl] vindoline]
- IC50 (HT-29): 300 nM
- Mean Survival Time (P388 leukemia [1]; vehicle 9.6 days (A), 10.1 days (E)): 21.5 days
- Increase in MST (P388 leukemia [1]; vs vehicle): 113%
- Fold-resistance ([2]; ID50 resistant cell line divided by ID50 wildtype cell line, 7200 min): 6
- IC50 ([2]; Mus musculus, P388, 120 h, read-out: ID50 P3/88/resist.): 430 nM
- LD50 [3]: 0.18 mg/kg
- T.I. (therapeutic index) (P388 leukemia [4]): < 1
- IC50 (P388 wild-type cells): 68 nM
- ID50 WI-38 fibroblast (WI-38 fibroblast): 3 × 10^-7
- IC50 (COLO-320-DM): 300 nM
- IC50 (OM-1): 400 nM
